Experiments:
[1] = tested on: Mouse cortical cell cultures; experiment: Fe^2+-induced free radical neurotoxicity in cortical cell cultures (LDH release); type: cell-based; conditions: for protection against free radical neurotoxicity relative to NBAS / prevention of free radical neurotoxicity relative to BAS: comparison in words; for effect on Fe^2+-induced neuronal death: 1 µM compound; for effect on Fe^2+-induced neuronal death / effect on Fe^2+-induced free radical neurotoxicity: continuous 50 µM Fe^2+; for effect on Fe^2+-induced free radical neurotoxicity: 10 µM compound
Protocol: (§1) Primary cortical cell cultures from embryonic mice were prepared and used to examine neuroprotective action of compounds. Mouse cortical cell culture system has been extensively used to study mechanisms and pharmacological intervention of neuronal death in neurological diseases. In brief, mouse cerebral cortices were removed from brains of the 15 day-old-fetal mice, in accordance with a protocol approved by our institutional animal care committee. […] After 7 days in vitro (DIV 7), cultures were shifted into a growth medium identical to the plating medium but lacking fetal serum. At DIV 7 - 9, […] cytosine arabinofuranoside was included to halt overgrowth of glia. Mixed cultures of neurons and glia were then fed twice a week.

[2] = DPPH anti-oxidant assay (decrease in DPPH absorption at 517 nm); type: biochemical; conditions: mean ± SEM, n = 3, DPPH alone 1.2
Protocol: To examine anti-oxidant effect, DPPH (2,2-diphenyl-1-picryl-hydrazyl radical), a stable free radical, was dissolved in ethanol to make a 100 µM solution. A compound was reacted with DPPH or ethanol. After incubation for 30 min, relative decrease in DPPH absorption at 517 nm was measured by a spectrophotometer.

[3] = tested on: Mouse cortical cell cultures; experiment: NMDA neurotoxicity in cortical cell cultures (LDH release); type: cell-based; conditions: for neuroprotective effect against NMDA neurotoxicity relative to BAS: comparison in words
Protocol: as §1

[4] = tested on: Mouse cortical cell cultures; experiment: Zn^2+ neurotoxicity in cortical cell cultures (LDH release); type: cell-based; conditions: for neuroprotective effect against Zn^2+ neurotoxicity relative to BAS: comparison in words
Protocol: as §1

[5] = 100 µM compound reacted with 100 uM DPPH in ethanol for 30 min
[6] = 300 µM compound, 300 µM NMDA for 10 min, in words
[7] = 10 µM compound reacted with 100 uM DPPH in ethanol for 30 min
[8] = 30 µM compound reacted with 100 uM DPPH in ethanol for 30 min
[9] = 300 µM compound reacted with 100 uM DPPH in ethanol for 30 min

In the case of `O=C(Nc1ccc(O)c(C(=O)O)c1)c1ccc([N+](=O)[O-])cc1` [NBAA, 5-(4-nitrobenzoyl)aminosalicylic acid], the “protection against free radical neurotoxicity relative to NBAS” value [1] is reported as “weaker than NBAS”, the A517nm [2, 5] is reported as 0.42 ± 0.22 and the “effect on NMDA neurotoxicity” value ([3]; 30 µM compound, 300 µM NMDA for 10 min, in words) is reported as “significantly attenuated”. The “change of protective effect against NMDA with higher doses” value ([3]; above 30 µM up to 300 µM, in words) was “not further increased”.
In the case of `O=C(O)c1cc(NCCc2ccc([N+](=O)[O-])cc2)ccc1O` [NPAA, 5-[2-(4-nitrophenyl)-ethyl]aminosalicylic acid], the “effect on Fe^2+-induced neuronal death” value ([1]; in words) is reported as “complete blockade”, the “protection against free radical neurotoxicity relative to NBAS” value [1] is reported as “more effective than NBAS” and the A517nm [2, 5] is reported as 0.09 ± 0.01. For the same compound, the “effect on NMDA neurotoxicity” value [3, 6] was “slightly reduced”.
For `O=C(O)c1cc(NCCCc2ccc([N+](=O)[O-])cc2)ccc1O` [NPPAA, 5-[3-(4-nitrophenyl)-n-propyl]aminosalicylic acid], the “effect on Fe^2+-induced neuronal death” value ([1]; in words) was “complete blockade”, the “protection against free radical neurotoxicity relative to NBAS” value [1] was “more effective than NBAS” and the A517nm [2, 5] was 0.09 ± 0.02. The “effect on NMDA neurotoxicity” value [3, 6] was “slightly reduced”.
In the case of `O=C(O)c1cc(NCc2ccc([N+](=O)[O-])cc2)ccc1O` [NBAS, 5-(4-nitrobenzyl)aminosalicylic acid], the “prevention of free radical neurotoxicity relative to BAS” value [1] is reported as “more potent than BAS”, the A517nm [2, 7] is reported as 0.37±0.1 and the A517nm [2, 8] is reported as 0.04 ± 0.01. For the same compound, the A517nm [2, 5] was 0.04±0.00, the A517nm [2, 9] was 0.04±0.00 and the “neuroprotective effect against Zn^2+ neurotoxicity relative to BAS” value [4] was “did not reduce neuroprotective effects of BAS”. For the same compound, the “neuroprotective effect against NMDA neurotoxicity relative to BAS” value [3] was “did not reduce neuroprotective effects of BAS”.
For `O=C(O)c1cc(NCc2ccc(Cl)cc2)ccc1O` [CBAS, 5-(4-chlorobenzyl)aminosalicylic acid], the “prevention of free radical neurotoxicity relative to BAS” value [1] was “more potent than BAS”, the “neuroprotective effect against Zn^2+ neurotoxicity relative to BAS” value [4] was “did not reduce neuroprotective effects of BAS” and the “neuroprotective effect against NMDA neurotoxicity relative to BAS” value [3] was “did not reduce neuroprotective effects of BAS”.
With `Nc1ccc(O)c(C(=O)O)c1` [AS, 5-amino salicylic acid] the “effect on free radical neurotoxicity following exposure to Fe^2+” value ([1]; 10 - 100 µM compound, 24 hr-exposure to 50 µM Fe^2+, in words) was “dose-dependently prevented”, the “effect on neuronal death after exposure to Zn^2+” value ([4]; 10 - 300 µM compound during and post Zn^2+ treatment, 300 µM Zn^2+ for 30 min, in words) was “not reduced” and the “effect on NMDA-induced neuronal death” value ([3]; 10 - 300 µM compound, 300 µM NMDA for 10 min, in words) was “did not attenuate”.
In the case of `CCOC(=O)c1cc(N(Cc2ccc([N+](=O)[O-])cc2)C(C)=O)ccc1O` [NNAHE, 5-(4-nitrobenzyl)-N-acetylamino-2-hydroxy ethylbenzoate], the “effect on Fe^2+-induced free radical neurotoxicity” value ([1]; in words) is reported as “blocked” and the “effect on NMDA neurotoxicity” value [3, 6] is reported as “attenuated”.
`Cc1c(C)c2c(c(C)c1O)CCC(C)(C(=O)O)O2` (centres unmarked) [Trolox, trolox] showed an A517nm ([2]; 3 µM compound reacted with 100 uM DPPH in ethanol for 30 min) of 1.08±0.1, an A517nm [2, 7] of 0.89±0.08 and an A517nm [2, 8] of 0.39±0.06. The A517nm [2, 5] was 0.05±0.01 and the A517nm [2, 9] was 0.03±0.01.
In the case of `CCOC(=O)c1cc(NCc2ccc([N+](=O)[O-])cc2)ccc1O` [NAHE, 5-(4-nitrobenzyl)amino-2-hydroxy ethylbenzoate], the “effect on Fe^2+-induced free radical neurotoxicity” value ([1]; in words) is reported as “blocked” and the “effect on NMDA neurotoxicity” value [3, 6] is reported as “attenuated”.
In the case of `CCOC(=O)c1cc(N(Cc2ccc([N+](=O)[O-])cc2)C(C)=O)ccc1OC(C)=O` [NNAAE, 5-(4-nitrobenzyl)-N-acetylamino-2-acetoxy ethylbenzoate], the “effect on Fe^2+-induced free radical neurotoxicity” value ([1]; in words) is reported as “blocked” and the “effect on NMDA neurotoxicity” value [3, 6] is reported as “attenuated”.
For `O=C(O)c1cc(NS(=O)(=O)c2ccc([N+](=O)[O-])cc2)ccc1O` [NBSAA, 5-(4-nitrobenzenesulfonyl)aminosalicylic acid], the “protection against free radical neurotoxicity relative to NBAS” value [1] was “weaker than NBAS”, the A517nm [2, 5] was 0.15 ± 0.05 and the “effect on NMDA neurotoxicity” value [3, 6] was “markedly reduced”. For the same compound, the “effect on NMDA neurotoxicity” value ([3]; 30 - 300 µM compound, 300 µM NMDA for 10 min, in words) was “attenuated NMDA neurotoxicity in a dose-dependent manner”.
In the case of `O=C(O)c1cc(NCc2c(F)c(F)c(F)c(F)c2F)ccc1O` [PBAS, 5-(pentafluorobenzyl)aminosalicylic acid], the inhibition at 300 µM ([3]; Mus musculus, 300 µM compound, 300 µM NMDA for 10 min, LDH 24 hr later, read-out: reduction of NMDA-induced neuronal death) is reported as about 65%.
With `O=C(O)c1cc(NCc2ccc(C(F)(F)F)cc2)ccc1O` [TBAS, 5-(4-trifluoromethylbenzyl)aminosalicylic acid] the “prevention of free radical neurotoxicity relative to BAS” value [1] was “more potent than BAS”, the “neuroprotective effect against Zn^2+ neurotoxicity relative to BAS” value [4] was “did not reduce neuroprotective effects of BAS” and the “neuroprotective effect against NMDA neurotoxicity relative to BAS” value [3] was “did not reduce neuroprotective effects of BAS”.

From EP1274675B1, “COMPOUNDS, COMPOSITIONS AND METHODS FOR PREVENTING NEURODEGENERATION IN ACUTE AND CHRONIC INJURIES IN THE CENTRAL NERVOUS SYSTEM” (Neurotech Co., Ltd., priority 2000, dated 2001)
